Experimental data reported in ChEMBL document CHEMBL1121526, “Use of acetylacetone to prepare a prodrug of cycloserine” (1980).

Assays:
Mus musculus [1] = organism: Mus musculus; assay: The compound was tested for urinary recovery was assayed for its content for total cycloserine content employing the chemical assay in mouse; assay type: functional, Urine
Escherichia coli = assay: antibacterial activity was reported as zones of inhibition in the disk diffusion assay using Escherichia coli; assay type: functional
Mus musculus [2] = organism: Mus musculus; assay: The compound was tested for urinary recovery was assayed for its content of free cycloserine by employing the bioassay in mouse; assay type: functional, Urine
Staphylococcus aureus = assay: antibacterial activity was reported as zones of inhibition in the disk diffusion assay using staphylococcus aureus; assay type: functional

Row | Compound | Urinary recovery of total cycloserine (Mus musculus [1]) | Diameter (Escherichia coli) | Urinary recovery of free cycloserine (Mus musculus [2]) | Diameter (Staphylococcus aureus)
1 | CNC(=O)NC1CON(C(=O)NC)C1=O (stereo not given) | <1% | < 6 mm | <1% | < 6 mm
2 | O=C(CCl)NC1CON(C(=O)CCl)C1=O (stereo not given) | 43% | < 6 mm | 1.1% | < 6 mm
3 | C/C(O)=C\C(C)=N\C1CONC1=O (stereo not given) | 64% | 39 mm | 93% | 36 mm
4 | CCOC(=O)NC1CONC1=O (stereo not given) | 33% | < 6 mm | <1% | < 6 mm
5 | CC1(C)CC(O)=C/C(=N/C2CONC2=O)C1 (stereo not given) | 55% | < 6 mm | <1% | < 6 mm
6 | O=C(CCl)NC1CONC1=O (stereo not given) | 70% | < 6 mm | 1% | < 6 mm
7 | O=C(NC(=O)C(Cl)(Cl)Cl)NC1CONC1=O (stereo not given) | 55% | 14 mm | <1% | < 6 mm
8 | O=C(NC1CONC1=O)C1CCCCC1 (stereo not given) | 53% | < 6 mm | 1% | < 6 mm
9 | CNC(=O)NC1CONC1=O (stereo not given) | 16% | 22 mm | <1% | 25 mm
10 | N[C@@H]1CONC1=O [CYCLOSERINE] | 45% | 39 mm | 64% | 36 mm
